Publication PMC9287381, “Structure-based rational design of an enhanced fluorogen-activating protein for fluorogens based on GFP chromophore” (Communications Biology, 2022)
Numbering of substitutions follows the chain as printed.

Tests used:
Test in all cases: spectrofluorometric titration of protein with chromophore
[1] = biological target: T1, FAST (Fluorescence-Activating and absorption-Shifting Tag) (Halorhodospira halophila, UniProt P16113, R52E/D65R/C69G/Y94W/T95M/F96I/D97P/Y98T/Q99S/M100R/T101G); type: binding; conditions: 0.10 µM protein, 25 °C
T1 construct: gene pyp; engineered full-length PYP variant (~14 kDa); E. coli BL21(DE3)
T1 sequence (P16113 1-125 R52E/D65R/C69G/Y94W/T95M/F96I/D97P/Y98T/Q99S/M100R/T101G): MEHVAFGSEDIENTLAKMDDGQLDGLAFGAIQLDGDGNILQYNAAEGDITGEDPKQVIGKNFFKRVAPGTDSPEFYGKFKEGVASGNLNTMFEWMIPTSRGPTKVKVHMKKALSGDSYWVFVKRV
Description: (§1) spectrofluorometric titration of protein with chromophore on FAST (Fluorescence-Activating and absorption-Shifting Tag) | studied their properties in complex with N871b fluorogen

[2] = biological target: T2, FAST (Fluorescence-Activating and absorption-Shifting Tag) (Halorhodospira halophila, UniProt P16113, R52E/C69G/Y94W/T95M/F96I/D97P/Y98T/Q99S/M100R/T101G); type: binding; conditions: 0.10 µM protein, 25 °C
T2 construct: gene pyp; engineered full-length PYP variant (~14 kDa); E. coli BL21(DE3)
T2 sequence (P16113 1-125 R52E/C69G/Y94W/T95M/F96I/D97P/Y98T/Q99S/M100R/T101G): T1 sequence (P16113 1-125 R52E/D65R/C69G/Y94W/T95M/F96I/D97P/Y98T/Q99S/M100R/T101G) with R65D
Description: as §1

[3] = biological target: T3, FAST (Fluorescence-Activating and absorption-Shifting Tag) (Halorhodospira halophila, UniProt P16113, C69G/Y94W/T95M/F96I/D97P/Y98T/Q99S/M100R/T101G); type: binding; conditions: 0.10 µM protein, 25 °C
T3 construct: gene pyp; engineered full-length PYP variant (~14 kDa); E. coli BL21(DE3)
T3 sequence (P16113 1-125 C69G/Y94W/T95M/F96I/D97P/Y98T/Q99S/M100R/T101G): T1 sequence (P16113 1-125 R52E/D65R/C69G/Y94W/T95M/F96I/D97P/Y98T/Q99S/M100R/T101G) with E52R, R65D
Description: (§2) spectrofluorometric titration of protein with chromophore on FAST (Fluorescence-Activating and absorption-Shifting Tag)

[4] = biological target: T4, FAST (Fluorescence-Activating and absorption-Shifting Tag) (Halorhodospira halophila, UniProt P16113, C69G/D97P/F96I/M100R/Q99S/R52Y/T101G/T95M/Y94W/Y98T); type: binding
T4 construct: gene pyp; engineered full-length PYP variant (~14 kDa); E. coli BL21(DE3)
T4 sequence (P16113 1-125 R52Y/C69G/Y94W/T95M/F96I/D97P/Y98T/Q99S/M100R/T101G): T1 sequence (P16113 1-125 R52E/D65R/C69G/Y94W/T95M/F96I/D97P/Y98T/Q99S/M100R/T101G) with E52Y, R65D
Description: as §2

[5] = biological target: T5, FAST (Fluorescence-Activating and absorption-Shifting Tag) (Halorhodospira halophila, UniProt P16113, R52L/C69G/Y94W/T95M/F96I/D97P/Y98T/Q99S/M100R/T101G); type: binding; conditions: 0.10 µM protein, 25 °C
T5 construct: gene pyp; engineered full-length PYP variant (~14 kDa); E. coli BL21(DE3)
T5 sequence (P16113 1-125 R52L/C69G/Y94W/T95M/F96I/D97P/Y98T/Q99S/M100R/T101G): T1 sequence (P16113 1-125 R52E/D65R/C69G/Y94W/T95M/F96I/D97P/Y98T/Q99S/M100R/T101G) with E52L, R65D
Description: as §2

[6] = biological target: T6, FAST (Fluorescence-Activating and absorption-Shifting Tag) (Halorhodospira halophila, UniProt P16113, P68K/C69G/Y94W/T95M/F96I/D97P/Y98T/Q99S/M100R/T101G); type: binding; conditions: 0.10 µM protein, 25 °C
T6 construct: gene pyp; engineered full-length PYP variant (~14 kDa); E. coli BL21(DE3)
T6 sequence (P16113 1-125 P68K/C69G/Y94W/T95M/F96I/D97P/Y98T/Q99S/M100R/T101G): T1 sequence (P16113 1-125 R52E/D65R/C69G/Y94W/T95M/F96I/D97P/Y98T/Q99S/M100R/T101G) with E52R, R65D, P68K
Description: (§3) spectrofluorometric titration of protein with chromophore on FAST (Fluorescence-Activating and absorption-Shifting Tag) | all the S99 mutants, P73S, P68K, D65K

[7] = biological target: T7, FAST (Fluorescence-Activating and absorption-Shifting Tag) (Halorhodospira halophila, UniProt P16113, D65K/C69G/Y94W/T95M/F96I/D97P/Y98T/Q99S/M100R/T101G); type: binding; conditions: 0.10 µM protein, 25 °C
T7 construct: gene pyp; engineered full-length PYP variant (~14 kDa); E. coli BL21(DE3)
T7 sequence (P16113 1-125 D65K/C69G/Y94W/T95M/F96I/D97P/Y98T/Q99S/M100R/T101G): T1 sequence (P16113 1-125 R52E/D65R/C69G/Y94W/T95M/F96I/D97P/Y98T/Q99S/M100R/T101G) with E52R, R65K
Description: as §3

[8] = biological target: T8, FAST (Fluorescence-Activating and absorption-Shifting Tag) (Halorhodospira halophila, UniProt P16113, C69G/P73S/Y94W/T95M/F96I/D97P/Y98T/Q99S/M100R/T101G); type: binding; conditions: 0.10 µM protein, 25 °C
T8 construct: gene pyp; engineered full-length PYP variant (~14 kDa); E. coli BL21(DE3)
T8 sequence (P16113 1-125 C69G/P73S/Y94W/T95M/F96I/D97P/Y98T/Q99S/M100R/T101G): T1 sequence (P16113 1-125 R52E/D65R/C69G/Y94W/T95M/F96I/D97P/Y98T/Q99S/M100R/T101G) with E52R, R65D, P73S
Description: as §3

[9] = biological target: T9, FAST (Fluorescence-Activating and absorption-Shifting Tag) (Halorhodospira halophila, UniProt P16113, C69G/Y94W/T95M/F96I/D97P/Y98T/Q99E/M100R/T101G); type: binding; conditions: 0.10 µM protein, 25 °C
T9 construct: gene pyp; engineered full-length PYP variant (~14 kDa); E. coli BL21(DE3)
T9 sequence (P16113 1-125 C69G/Y94W/T95M/F96I/D97P/Y98T/Q99E/M100R/T101G): T1 sequence (P16113 1-125 R52E/D65R/C69G/Y94W/T95M/F96I/D97P/Y98T/Q99S/M100R/T101G) with E52R, R65D, S99E

[10] = biological target: T10, FAST (Fluorescence-Activating and absorption-Shifting Tag) (Halorhodospira halophila, UniProt P16113, C69G/Y94W/T95M/F96I/D97P/Y98T/Q99R/M100R/T101G); type: binding; conditions: 0.10 µM protein, 25 °C
T10 construct: gene pyp; engineered full-length PYP variant (~14 kDa); E. coli BL21(DE3)
T10 sequence (P16113 1-125 C69G/Y94W/T95M/F96I/D97P/Y98T/Q99R/M100R/T101G): T1 sequence (P16113 1-125 R52E/D65R/C69G/Y94W/T95M/F96I/D97P/Y98T/Q99S/M100R/T101G) with E52R, R65D, S99R

pFAST = biological target: T11, pFAST; type: binding, Halorhodospira halophila; conditions: 0.10 µM protein, 25 °C
T11 construct: gene pyp; multipoint directed-evolution variant of FAST (itself engineered PYP); E. coli BL21(DE3)
Description: spectrofluorometric titration of protein with chromophore on pFAST

[11] = biological target: T12, FAST (Fluorescence-Activating and absorption-Shifting Tag) (Halorhodospira halophila, UniProt P16113, C69G/Y94W/T95M/F96I/D97P/Y98T/Q99K/M100R/T101G); type: binding; conditions: 0.10 µM protein, 25 °C
T12 construct: gene pyp; engineered full-length PYP variant (~14 kDa); E. coli BL21(DE3)
T12 sequence (P16113 1-125 C69G/Y94W/T95M/F96I/D97P/Y98T/Q99K/M100R/T101G): T1 sequence (P16113 1-125 R52E/D65R/C69G/Y94W/T95M/F96I/D97P/Y98T/Q99S/M100R/T101G) with E52R, R65D, S99K

[12] = biological target: T13, FAST (Fluorescence-Activating and absorption-Shifting Tag) (Halorhodospira halophila, UniProt P16113, R52Y/C69G/Y94W/T95M/F96I/D97P/Y98T/Q99S/M100R/T101G); type: binding; conditions: 0.10 µM protein, 25 °C
T13 construct: gene pyp; engineered full-length PYP variant (~14 kDa); E. coli BL21(DE3)
T13 sequence (P16113 1-125 R52Y/C69G/Y94W/T95M/F96I/D97P/Y98T/Q99S/M100R/T101G): T1 sequence (P16113 1-125 R52E/D65R/C69G/Y94W/T95M/F96I/D97P/Y98T/Q99S/M100R/T101G) with E52Y, R65D
Description: as §2

| SMILES | Kd [1] | Kd [2] | Kd [3] | Kd [4] | Kd [5] | Kd [6] | Kd [7] | Kd [8] | Kd [9] | Kd [10] | Kd (pFAST) | Kd [11] | Kd [12] |
| --- | --- | --- | --- | --- | --- | --- | --- | --- | --- | --- | --- | --- | --- |
| COc1cc(O)ccc1/C=C1N=C(/C=C/c2ccncc2)N(C)C\1=O [N871b] | 1360 ± 220 nM | 1300 ± 70 nM | 0.33 ± 0.01 µM | 0.24 ± 0.02 µM | 0.27 ± 0.01 µM | 220 ± 10 nM | 250 ± 10 nM | 170 ± 10 nM | 210 ± 10 nM | 240 ± 10 nM | 0.04 ± 0.002 µM | 270 ± 10 nM | – |
| COc1cc(O)ccc1/C=C1\N=C2C=C(/C=C/c3ccncc3)C=CN2C1=O [MCL.3a] | – | – | 0.08 ± 0.01 µM | – | 0.06 ± 0.01 µM | – | – | – | – | – | 0.025 ± 0.002 µM | – | 0.11 ± 0.02 µM |
| COc1cc(O)ccc1/C=C1N=C(/C=C/c2cccs2)N(C)C\1=O [MCL.1b] | – | – | 0.2 ± 0.04 µM | 0.27 ± 0.06 µM | 0.44 ± 0.2 µM | – | – | – | – | – | 0.023 ± 0.003 µM | – | – |
| COc1cc(O)ccc1/C=C1N=C(/C=C/c2ccccn2)N(C)C\1=O [MCL.1f] | – | – | 0.27 ± 0.04 µM | 0.31 ± 0.05 µM | 0.39 ± 0.1 µM | – | – | – | – | – | 0.029 ± 0.005 µM | – | – |
